# Laboratory results taken from PMC7450057, “Enhancing intracellular accumulation and target engagement of PROTACs with reversible covalent chemistry” (Nature Communications, 2020).
# Where “and” joins values, the source holds several entries; their conditions need not be identical. Equal values may be shown once. Entries after “also recorded” stand apart in the source; their conditions may differ.
# Experiments:
# C481S mutant BTK = target: T1, C481S mutant BTK (Homo sapiens, UniProt Q06187, C481S); test: BTK degradation in XLA cells overexpressing C481S mutant BTK (western blot); type: cell-based; details: 24 h
# T1 construct: expressed in transfected cells; host or cells: XLA cells (gift from Dr. Woyach)
# T1 sequence (Q06187 whole entry C481S): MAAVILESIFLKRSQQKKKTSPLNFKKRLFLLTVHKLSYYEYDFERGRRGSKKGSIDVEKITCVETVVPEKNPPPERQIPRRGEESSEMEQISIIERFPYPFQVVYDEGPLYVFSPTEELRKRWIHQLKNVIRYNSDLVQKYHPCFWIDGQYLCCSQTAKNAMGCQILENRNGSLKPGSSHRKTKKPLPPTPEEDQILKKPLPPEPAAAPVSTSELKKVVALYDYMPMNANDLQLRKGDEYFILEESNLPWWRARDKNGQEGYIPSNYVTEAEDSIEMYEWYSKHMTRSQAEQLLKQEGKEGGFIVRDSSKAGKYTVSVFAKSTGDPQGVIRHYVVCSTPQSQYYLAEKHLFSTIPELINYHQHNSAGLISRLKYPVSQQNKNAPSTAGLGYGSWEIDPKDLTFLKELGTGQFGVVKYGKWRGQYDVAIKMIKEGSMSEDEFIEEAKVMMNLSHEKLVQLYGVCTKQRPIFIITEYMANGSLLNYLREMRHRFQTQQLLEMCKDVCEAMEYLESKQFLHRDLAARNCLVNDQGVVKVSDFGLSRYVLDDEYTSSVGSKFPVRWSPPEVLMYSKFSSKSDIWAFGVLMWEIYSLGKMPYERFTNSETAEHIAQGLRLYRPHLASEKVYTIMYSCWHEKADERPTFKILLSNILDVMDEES
# Procedure: XLA cells overexpressing wild-type BTK or mutant C481S BTK were plated at the same cell number and density as the above experiments and were treated with RC-1, IRC-1, or RNC-1 at the dose of 1.6, 8.0, 40, 200, and 1000 nM for 24 h. After completion of treatment, all the cells were collected and processed for western blot analysis.
# The collected cells and spleen tissues were lysed in RIPA lysis buffer (50 mM Tris-HCl, pH 7.4, 150 mM NaCl, 1% NP-40, 0.5% sodium deoxycholate, 0.1% SDS) supplemented with Halt™ Protease and Phosphatase Inhibitor Cocktail (Thermo Fisher Scientific, Cat. No. PI78440) immediately before use. Lysates were centrifuged at 15,000 × g for 10 min at 4 °C and the supernatant was quantified for total protein concentration using the Pierce BCA Protein Assay (Thermo Fisher Scientific, Cat. No. 23225). Thirty micrograms of protein were loaded onto sodium dodecyl sulfate−polyacrylamide gel for electrophoresis (Bio-Rad) and transferred onto PVDF membranes (Millipore, Cat. No. IPVH00010). […] Imaging was performed using the ECL Prime chemiluminescent western blot detection reagents (GE Healthcare, Cat. No. RPN2232) by visualization of the blots to X-Ray film or with an Imager (Kindle Biosciences, Cat. No. D1001). All western blots were subsequently processed and quantified with Imager software. Protein level was normalized to β-actin or GAPDH loading controls.
# BTK = BTK (Homo sapiens, UniProt Q06187); test: BTK degradation in MOLM-14 cells (western blot); type: cell-based; set-up: endogenous in cells; host or cells: MOLM-14; details: for BTK degradation (in words): MOLM-14 cells
# Chain of BTK (Q06187 whole entry, the tested form may be a part): as the sequence (Q06187 whole entry C481S) above, with S481C counted along it
# NanoLuc-CRBN fusion = target: T2, NanoLuc-CRBN fusion (Homo sapiens, UniProt Q96SW2); test: NanoBRET CRBN in-cell target engagement assay; type: cell-based; details: for NanoBRET(%): Figure 3b; for NanoBRET(%) / IC50: triplicates; for IC50: HEK-293 cells, CRBN tracer 0.5 µM, read-out: CRBN target engagement IC50,TE; for K′P,D (relative intracellular accumulation coefficient): Kd (CRBN)/IC50,TE (CRBN); for intracellular accumulation of RC-1 relative to the compound: from K′P,D values, CRBN (Table 2); for CRBN target engagement IC50 relative to that of RC-1: ratio compound/RC-1
# T2 construct: host or cells: HEK 293T/17
# T2 sequence (Q96SW2 whole entry, the tested form may be a part): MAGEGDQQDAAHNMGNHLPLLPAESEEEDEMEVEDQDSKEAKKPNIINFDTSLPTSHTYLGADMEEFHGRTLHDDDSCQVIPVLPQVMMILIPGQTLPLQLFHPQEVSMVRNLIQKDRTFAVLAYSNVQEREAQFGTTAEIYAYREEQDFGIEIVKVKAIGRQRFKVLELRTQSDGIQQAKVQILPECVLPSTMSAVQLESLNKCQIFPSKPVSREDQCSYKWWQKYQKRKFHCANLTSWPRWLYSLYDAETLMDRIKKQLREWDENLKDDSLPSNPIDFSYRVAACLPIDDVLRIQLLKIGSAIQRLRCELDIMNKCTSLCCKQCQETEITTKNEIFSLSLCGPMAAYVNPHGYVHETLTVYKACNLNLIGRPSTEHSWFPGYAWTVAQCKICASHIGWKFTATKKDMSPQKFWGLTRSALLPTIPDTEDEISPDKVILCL
# T2 sequence (Q16531 whole entry partner, the tested form may be a part): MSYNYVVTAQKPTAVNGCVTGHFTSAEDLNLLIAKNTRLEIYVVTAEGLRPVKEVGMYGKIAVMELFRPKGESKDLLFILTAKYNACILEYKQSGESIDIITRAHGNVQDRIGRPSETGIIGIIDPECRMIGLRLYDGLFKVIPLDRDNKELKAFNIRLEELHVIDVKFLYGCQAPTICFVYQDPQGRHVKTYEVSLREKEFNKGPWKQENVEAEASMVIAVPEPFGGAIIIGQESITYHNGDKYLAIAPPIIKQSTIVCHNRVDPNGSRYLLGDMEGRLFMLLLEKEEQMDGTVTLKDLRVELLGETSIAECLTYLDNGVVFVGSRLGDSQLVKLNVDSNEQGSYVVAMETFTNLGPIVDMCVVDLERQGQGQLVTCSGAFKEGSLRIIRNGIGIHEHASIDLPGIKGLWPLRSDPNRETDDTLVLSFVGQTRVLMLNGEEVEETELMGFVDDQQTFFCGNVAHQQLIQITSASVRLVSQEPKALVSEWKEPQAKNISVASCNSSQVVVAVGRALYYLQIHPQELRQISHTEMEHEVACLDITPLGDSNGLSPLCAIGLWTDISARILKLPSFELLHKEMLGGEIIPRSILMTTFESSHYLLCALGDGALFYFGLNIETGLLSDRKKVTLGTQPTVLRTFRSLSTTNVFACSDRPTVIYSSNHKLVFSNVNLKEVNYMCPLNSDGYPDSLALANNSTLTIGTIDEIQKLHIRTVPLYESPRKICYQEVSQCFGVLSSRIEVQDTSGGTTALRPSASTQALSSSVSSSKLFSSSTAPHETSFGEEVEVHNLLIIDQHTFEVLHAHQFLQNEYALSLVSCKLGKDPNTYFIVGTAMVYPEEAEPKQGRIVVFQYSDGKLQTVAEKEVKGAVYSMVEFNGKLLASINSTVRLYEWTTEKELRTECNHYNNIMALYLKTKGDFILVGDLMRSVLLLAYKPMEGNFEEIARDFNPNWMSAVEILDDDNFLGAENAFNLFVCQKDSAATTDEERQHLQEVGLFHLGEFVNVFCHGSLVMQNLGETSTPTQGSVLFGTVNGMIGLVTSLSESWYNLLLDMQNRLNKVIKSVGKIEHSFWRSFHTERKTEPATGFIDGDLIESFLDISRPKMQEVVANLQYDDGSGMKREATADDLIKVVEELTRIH
# Procedure: The target engagement assay for BTK or CRBN was from Promega (BTK kit, Cat. No. N2500; CRBN kit, Cat. No. CS1810C136) and was performed according to the manufacture’s instruction with some modifications. […] After 2 h incubation, the 3X Nano-Glo® Substrate with NanoLuc® extracellular inhibitor were added to cells and developed for 3 min at room temperature. BRET signals were collected using a BioTek SYNERGY H1 microplate reader equipped with a 450/80-nm BP filter for donor emission and a 610-nm LP filter for acceptor emission. BRET Ratio was calculated with the equation: [(Acceptor sample/Donor sample)–(Acceptor no tracer control/Donor no tracer control)] × 1000. The IC50 of the compound against its BTK or CRBN tracer was calculated using GraphPad Prism software.
# Jeko-1 = test: IC50 in MCL cell lines (Supplementary Table 2), Jeko-1; details: for IC50: Jeko-1, triplicates; for Cell Viability (%): Jeko-1 cells, replicate wells
# Maver-1 = test: IC50 in MCL cell lines (Supplementary Table 2), Maver-1; details: for IC50: Maver-1, triplicates; for Cell Viability (%): Maver-1 cells, replicate wells
# Mino cells = test: AlamarBlue cell viability assay, Mino; type: cell-based; details: for Mino Cell Viability%: Figure 2f, 5 replicates
# Procedure: The IC50 was calculated using GraphPad Prism software with a four-parameter dose-response curve fit.
"Quantification anti-BTK / anti-β-actin (BTK level vs DMSO) (BTK; Figure 2b, 8 nM, duplicates)","Quantification anti-BTK / anti-β-actin (BTK level vs DMSO) (BTK; Figure 2b, 40 nM, duplicates)","Quantification anti-BTK / anti-β-actin (BTK level vs DMSO) (BTK; Figure 2b, 200 nM, duplicates)",NanoBRET(%) (NanoLuc-CRBN fusion; 1.60E-08 M),NanoBRET(%) (NanoLuc-CRBN fusion; 2.00E-06 M),NanoBRET(%) (NanoLuc-CRBN fusion; 3.20E-09 M),NanoBRET(%) (NanoLuc-CRBN fusion; 4.00E-07 M),NanoBRET(%) (NanoLuc-CRBN fusion; 8.00E-08 M),IC50 (NanoLuc-CRBN fusion),"K′P,D (relative intracellular accumulation coefficient) (NanoLuc-CRBN fusion)",intracellular accumulation of RC-1 relative to the compound (NanoLuc-CRBN fusion),CRBN target engagement IC50 relative to that of RC-1 (NanoLuc-CRBN fusion),"Quantification anti-BTK / anti-β-actin (BTK level vs DMSO) (BTK; Figure 2d, DMSO = 100 (mean))",IC50 (Jeko-1),Compound,"BTK degradation (in words) (BTK; 200 nM, 24 h (Fig. 2d))",Cell Viability (%) (Jeko-1; 1.25E-06 M),Cell Viability (%) (Jeko-1; 1.56E-07 M),Cell Viability (%) (Jeko-1; 2.50E-06 M),Cell Viability (%) (Jeko-1; 3.13E-07 M),Cell Viability (%) (Jeko-1; 5.00E-06 M),other results
93.1337 and 89.8918,73.5656 and 73.5943,64.1549 and 63.4726,80.9317% and 101.051% and 94.8942%,31.3092% and 33.6262% and 37.1463%,91.4483% and 90.0848%,56.7638% and 59.2904%,86.864% and 89.7074% and 93.5853%,860 nM,1.7,10 fold,3 fold,–,–,CN(CC=CC(=O)N1CCCC(n2nc(-c3ccc(Oc4ccccc4)cc3)c3c(N)ncnc32)C1)CCCNC(=O)CNc1cccc2c1C(=O)N(C1CCC(=O)NC1=O)C2=O (stereo not shown) [IRC-1],–,–,–,–,–,–,"BTK degradation (in words) (C481S mutant BTK): much more effective degradation of the BTK C481S mutant than its wild-type; BTK degradation (in words) (BTK; indicated doses, 24 h): induced inefficient BTK degradation; also recorded: very little BTK degradation was observed; NanoBRET(%) (NanoLuc-CRBN fusion; 1.00E-05 M): 14.8662% and 22.7538% and 22.1529%; CRBN engagement (NanoLuc-CRBN fusion; at 400 nM): ~ 40%"
–,–,–,–,–,–,–,–,–,–,–,–,91.1107,600 nM,CN1C(=O)CCC(N2C(=O)c3cccc(NCC(=O)NCCCN(C)C(C)(C)C=C(C#N)C(=O)N4CCCC(n5nc(-c6ccc(Oc7ccccc7)cc6)c6c(N)ncnc65)C4)c3C2=O)C1=O (stereo not shown) [RC-1-Me],cannot degrade BTK in cells,36.268% and 32.7063% and 31.5519%,68.2022% and 62.2702% and 73.2784%,5.54% and 14.7844% and 6.721%,71.0782% and 71.3298% and 71.3347%,4.5335% and 3.7442% and 3.927%,Cell Viability (%) (Jeko-1; 6.25E-07 M): 49.1754% and 57.0313% and 33.3624%; Cell Viability (%) (Jeko-1; 7.81E-08 M): 77.062% and 93.1685% and 69.7463%; IC50 (Maver-1): 4200 nM; Cell Viability (%) (Maver-1; 1.25E-06 M): 75.2061% and 69.0199% and 79.2231%; Cell Viability (%) (Maver-1; 1.56E-07 M): 95.5665% and 93.8239% and 93.1905%; Cell Viability (%) (Maver-1; 2.50E-06 M): 67.4512% and 61.3175% and 56.7459%; Cell Viability (%) (Maver-1; 3.13E-07 M): 94.477% and 92.288% and 91.2083%; Cell Viability (%) (Maver-1; 5.00E-06 M): 42.5652% and 49.5981% and 48.479%; Cell Viability (%) (Maver-1; 6.25E-07 M): 91.2247% and 87.9954% and 86.7647%; Cell Viability (%) (Maver-1; 7.81E-08 M): 97.0795% and 100.847% and 94.9725%
–,–,–,–,–,–,–,–,–,–,–,–,83.2734,600 nM,CC(C)(C)C=C(C#N)C(=O)N1CCCC(n2nc(-c3ccc(Oc4ccccc4)cc3)c3c(N)ncnc32)C1 (stereo not shown) [RC-Ctrl],"Neither RC-Ctrl, nor pomalidomide, nor a combination of both caused BTK degradation",31.3102% and 33.1774% and 45.3843%,69.2456% and 61.0172% and 73.2882%,11.5927% and 9.314% and 11.5138%,58.8318% and 42.4713% and 68.6832%,5.458% and 5.865% and 4.45%,"BTK degradation (in words) (BTK; 200 nM, 24 h (Fig. 2d), listed as RC-1 warhead): neither the RC-1 warhead, nor pomalidomide, nor a combination of both caused BTK degradation; Cell Viability (%) (Jeko-1; 6.25E-07 M): 52.1031% and 47.1602% and 45.3596%; Cell Viability (%) (Jeko-1; 7.81E-08 M): 53.9062% and 67.1539% and 84.5751%; IC50 (Maver-1): > 5000 nM; Cell Viability (%) (Maver-1; 1.25E-06 M): 92.5899% and 86.5612% and 87.595%; Cell Viability (%) (Maver-1; 1.56E-07 M): 103.384% and 106.186% and 101.772%; Cell Viability (%) (Maver-1; 2.50E-06 M): 81.7599% and 80.9854% and 82.1702%; Cell Viability (%) (Maver-1; 3.13E-07 M): 99.5605% and 94.4048% and 98.8352%; Cell Viability (%) (Maver-1; 5.00E-06 M): 60.4937% and 62.4464% and 56.8706%; Cell Viability (%) (Maver-1; 6.25E-07 M): 97.5323% and 94.4409% and 89.8332%; Cell Viability (%) (Maver-1; 7.81E-08 M): 103.555% and 102.055% and 101.769%"
97.1575 and 95.3789,69.0679 and 73.2452,33.5661 and 27.9942,102.085% and 102.001%,49.8083% and 51.4483% and 59.2693%,100.05% and 108.808% and 104.469%,67.9857% and 66.2855% and 79.0983%,74.8615% and 82.1247%,1690 nM,1.1,16 fold,7 fold,–,–,CN(CCCNC(=O)CNc1cccc2c1C(=O)N(C1CCC(=O)NC1=O)C2=O)CCCC(=O)N1CCCC(n2nc(-c3ccc(Oc4ccccc4)cc3)c3c(N)ncnc32)C1 (stereo not shown) [RNC-1],–,–,–,–,–,–,"Mino Cell Viability% (Mino cells; 1.00E-06 M): 58.0853% and 51.9026% and 45.6712% and 52.4594%; Mino Cell Viability% (Mino cells; 1.60E-09 M): 101.95% and 90.6294% and 68.165% and 98.7947% and 93.12%; Mino Cell Viability% (Mino cells; 2.00E-07 M): 37.8282% and 87.963% and 68.8682% and 84.564% and 91.6647%; Mino Cell Viability% (Mino cells; 3.20E-10 M): 102.731% and 88.3341% and 102.301% and 86.4979% and 82.7278%; Mino Cell Viability% (Mino cells; 4.00E-08 M): 90.0141% and 69.2003% and 110.3% and 97.7887% and 98.2185%; Mino Cell Viability% (Mino cells; 5.00E-06 M): 16.067% and 36.4022% and 19.085% and 31.8214% and 33.179%; Mino Cell Viability% (Mino cells; 8.00E-09 M): 96.0404% and 89.3401% and 104.098% and 90.522% and 101.012%; IC50 (Mino cells; Homo sapiens, Mino cells, 72 h, Alamar Blue): 1000 nM"
